Type in all cases: cell-based
The test system of assay [1] is SP1 protein in AML cell lines (FLT3-ITD and FLT3-WT). In words: SP1 protein levels, Western blotting. As for the experimental part:
Whole cell lysates were prepared by suspending cell pellets in RIPA buffer for 20 min (1% NP-40, 0.1% SDS, 150 mM NaCl, 50 mM Tris, pH 8.0), then supplemented with 1× complete EDTA free protease inhibitor (Roche) and 1× PhosStop (Roche). Lysates were separated by 4-20% SDS-PAGE and transferred to PVDF membrane (GE Healthcare, Piscataway, N.J.). Membranes were blocked with 5% milk or BSA in 1×TBS with 0.1% Tween 20 for 1 hour at room temperature with shaking. Primary antibodies for ACTIN, GAPDH and FLT3 (Santa Cruz Biotechnology, Santa Cruz Calif.), P65 (Cell signaling), PRMT5 and SP1 (Millipore), H4R3, H3R8, H3 and H4 (Abcam), were diluted 1:1000 or 1:2000 in 5% milk or BSA and incubated for 1-2 hr at room temperature. Membranes were washed using 1×TBS-T, incubated with HRP-conjugated secondary antibodies diluted in 1×TBS-T with 5% milk or BSA, washed, and developed using SuperSignal West Dura Chemiluminescent Substrate (Thermo Scientific). […]
A similar trend was documented in the in vivo murine model of PRMT5 overexpression generated by THP-1/PRMT5 engraftment, as a significant increase in SP1 levels was measured when compared to THP-1/EV control mice (FIG. 45). […]

In assay [2] the test system is FLT3 RNA and protein in MV4-11, THP-1 cells and FLT3-ITD patient samples. Put plainly: FLT3 RNA (qRT-PCR) and protein (western blotting) after PRMT5 inhibition. The settings on record: MV4-11, THP-1, FLT3-ITD patient samples. As for the experimental part: Whole cell lysates were prepared by suspending cell pellets in RIPA buffer for 20 min (1% NP-40, 0.1% SDS, 150 mM NaCl, 50 mM Tris, pH 8.0), then supplemented with 1× complete EDTA free protease inhibitor (Roche) and 1× PhosStop (Roche). Lysates were separated by 4-20% SDS-PAGE and transferred to PVDF membrane (GE Healthcare, Piscataway, N.J.). Membranes were blocked with 5% milk or BSA in 1×TBS with 0.1% Tween 20 for 1 hour at room temperature with shaking. […]
Total RNA was extracted using TriZol reagent (Invitrogen) and subjected to Reverse Transcription using SuperScript III reagents (Invitrogen). Quantitative Real-Time PCR was performed on resulting cDNA using commercially available TaqMan Gene Expression Assay primers and probes, and the 7900HT Fast Real-Time PCR System (Applied Biosystems). Mature microRNA levels were quantified using reverse transcription product made with TaqMan MicroRNA Reverse Transcription Kit (Life Technologies).
PRMT5 has been reported to interact with, and to be regulated via posttranslational phosphorylation by mutant constitutively active tyrosine kinase; JAK2V617F (Liu, F., et al. (2011) Cancer Cell 19, 283-294). […] To further confirm FLT3 downregulation following PRMT5 knockdown, kinase activity was measured by detecting phosphorylated STAT5 levels. […]

Assay [3] has as its system FLT3 response element in THP-1 cells. In words: FLT3-promoter-Luciferase reporter assay. As for the experimental part:
Promoter region of FLT3 (SEQ ID NO. 1: […] […] […] […] […] […] […] […] […] […] […] […] […] […] CGCGAGGCGCGCCGCT.[…] […] […] […] […] […] […]) was cloned into pGL4.11 [luc2P] vector. THP-1 cells were transfected with empty vector or FLT3-promoter luciferase plasmid and Renilla in presence or absence of C12. Firefly luciferase and Renilla luciferase activity was measured using Dual-Luciferase Reporter Assay System (Promega).
A key regulator of FLT3 expression in AML has been previously identified: a transactivation complex composed of transcription factors SP1 and NFκB(p65) (Liu, S., et al. (2010) Cancer Cell 17, 333-347; Blum, W., et al. (2012) Blood 119, 6025-6031). […] The role of PRMT5 in recruitment and localization of these factors to regulatory region of FLT3 was then tested using a chromatin immunoprecipitation (ChIP) assay and antibodies specific for NFκB(p65), SP1 and primers designed to amplify predicted binding sites at the promoter region of FLT3 (Liu, S., et al. (2008) Blood 4, 2364-2373; Liu, S., et al. (2010) Cancer Cell 17, 333-347). […] PRMT5 was then overexpressed in MV4-11 and THP-1 cells, and the ChIP experiment repeated. […] Additionally, supporting a functional role for PRMT5 in modulating FLT3 activity, inhibition of PRMT5 following exposure to C12 disrupted the FLT3 response element (i.e. FLT3-promoter-Luciferase reporter) activities in THP-1 cells (FIG. 43B). […]

The results in this text go back to patent US9856218B2, “Inhibitors of PRMT5 and methods of their use” (Ohio State Innovation Foundation, priority 2013, dated 2018).

SMILES strings stand for the structures.

With `CCn1c2ccccc2c2cc(CNCc3ccccc3OC)ccc21` [HLCL-61], the SP1 protein levels entry in assay [1] was “significant knockdown of SP1 protein levels”. In assay [2], the “wild-type or mutated FLT3 RNA and protein” value is “significant downregulation”. Moreover, in assay [3], the “FLT3 response element (FLT3-promoter-Luciferase reporter) activities” value is on record as “disrupted”.
